Patent US8637501B2, “Azinone-substituted azepino[b]indole and pyrido-pyrrolo-azepine MCH-1 antagonists, methods of making, and use thereof” (Albany Molecular Research, Inc., priority 2009, dated 2014)

How the values were obtained:
human MCH-1 receptor = human MCH-1 receptor (Homo sapiens (Human), UniProt Q99705); experiment: Binding Assay for Human Melanin-Concentrating Hormone (MCH-1) Receptor; conditions: radioligand displacement, membranes from CHO-K1 cells expressing human MCH-1 receptor; Ki from IC50 by Cheng Prusoff equation; read-out: MCH1 Ki
Outline: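 Membranes from CHO-K1 cells stably expressing human MCH-1 incubated 60 min at 25 °C with 1.4 nM tritiated indazolyl-pyridinone radioligand in 50 mM Tris-HCl pH 7.4. Bound counts by filtration and scintillation; IC50 and nH by Hill fit, Ki by Cheng–Prusoff.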

Chain of human MCH-1 receptor (Q99705 whole entry): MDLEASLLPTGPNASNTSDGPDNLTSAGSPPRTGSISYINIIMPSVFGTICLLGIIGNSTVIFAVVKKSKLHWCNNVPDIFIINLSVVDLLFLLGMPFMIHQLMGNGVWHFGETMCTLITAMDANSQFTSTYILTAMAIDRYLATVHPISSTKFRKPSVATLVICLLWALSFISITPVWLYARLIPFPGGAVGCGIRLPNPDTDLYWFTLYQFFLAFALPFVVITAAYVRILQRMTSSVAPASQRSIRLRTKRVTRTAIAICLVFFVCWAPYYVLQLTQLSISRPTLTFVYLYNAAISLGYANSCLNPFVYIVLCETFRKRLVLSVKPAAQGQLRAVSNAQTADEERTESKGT

A Ki (human MCH-1 receptor) of 10 nM and a melting point of 211 to 220 °C were found for `CN1CCCc2c(c3ccc(N4CCN(CCc5ccc(F)cc5)CC4=O)cc3n2C)C1.Cl` [Example 74, 1-(2,6-Dimethyl-1,2,3,4,5,6-hexahydroazepino[4,3-b]indol-8-yl)-4-(4-fluorophenethyl)piperazin-2-one hydrochloride] in this work.

A Ki (human MCH-1 receptor) of 14 nM and a melting point of 194 to 205 °C were found for `Cl.Cn1c2c(c3ccc(N4CCN(CCc5ccc(F)cc5)CC4=O)cc31)CN(C1CCC1)CCC2` [Example 75, 1-(2-Cyclobutyl-6-methyl-1,2,3,4,5,6-hexahydroazepino[4,3-b]indol-8-yl)-4-(4-fluorophenethyl)piperazin-2-one hydrochloride] in this work.

A Ki (human MCH-1 receptor) of 18 nM and a melting point of 180 to 190 °C were found for `Cl.Cn1c2c(c3ccc(-n4ccc(OCc5ncc(F)cc5F)cc4=O)cc31)CNCCC2` [Example 106, 4-((3,5-Difluoropyridin-2-yl)methoxy)-1-(6-methyl-1,2,3,4,5,6-hexahydroazepino[4,3-b]indol-8-yl)pyridin-2(1H)-one hydrochloride] in this work.

In the case of `Cl.Cn1c2c(c3ccc(-n4ncc(OCc5ccc(F)cn5)cc4=O)nc31)CCNCC2` [Example 82, 5-((5-Fluoropyridin-2-yl)methoxy)-2-(10-methyl-5,6,7,8,9,10-hexahydropyrido[3′,2′:4,5]pyrrolo[2,3-d]azepin-2-yl)pyridazin-3(2H)-one hydrochloride], the Ki (human MCH-1 receptor) is reported as 53 nM and the melting point is reported as 226 to 230 °C (dec.).

A Ki (human MCH-1 receptor) of 15 nM and a melting point of 308 to 312 °C were found for `Cl.Cn1c2c(c3ccc(-n4ccc(-c5ccc(C(F)(F)F)nc5)cc4=O)nc31)CNCCC2` [Example 89, 1-(10-Methyl-5,6,7,8,9,10-hexahydropyrido[3′,2′:4,5]pyrrolo[3,2-c]azepin-2-yl)-4-(6-(trifluoromethyl)pyridin-3-yl)pyridin-2(1H)-one hydrochloride] in this work.

A Ki (human MCH-1 receptor) of 112 nM and a melting point of 250 to 254 °C were found for `CC(=O)N1CCc2[nH]c3cc(-n4ccc(OCc5ccccc5)cc4=O)ccc3c2CC1` [Example 54, 1-(3-Acetyl-1,2,3,4,5,6-hexahydroazepino[4,5-b]indol-8-yl)-4-(benzyloxy)pyridin-2(1H)-one] in this work.

For `Cl.Cn1c2c(c3ccc(-n4ccc(-c5ccc(C(F)(F)F)nc5)cc4=O)cc31)CNCCC2` [Example 27, 1-(6-Methyl-1,2,3,4,5,6-hexahydroazepino[4,3-b]indol-8-yl)-4-(6-(trifluoromethyl)pyridin-3-yl)pyridin-2(1H)-one hydrochloride], the Ki (human MCH-1 receptor) was 5.3 nM and the melting point was 274 to 280 °C (dec.).

With `Cl.O=c1cc(-c2ccc(C(F)(F)F)nn2)ccn1-c1ccc2c3c([nH]c2c1)CCCNC3` [Example 37, 1-(1,2,3,4,5,6-Hexahydroazepino[4,3-b]indol-8-yl)-4-(6-(trifluoromethyl)pyridazin-3-yl)pyridin-2(1H)-one hydrochloride] the Ki (human MCH-1 receptor) was 29.2 nM and the melting point was 310 to 315 °C (dec.).

A Ki (human MCH-1 receptor) of 4.6 nM and a melting point of 252 to 257 °C were found for `Cl.Cn1c2c(c3ccc(N4CCN(CCc5ccc(Cl)cc5)CC4=O)cc31)CNCCC2` [Example 64, 4-(4-Chlorophenethyl)-1-(6-methyl-1,2,3,4,5,6-hexahydroazepino[4,3-b]indol-8-yl)piperazin-2-one hydrochloride] in this work.

In the case of `Cl.Cn1c2c(c3ccc(-n4ccc(-c5ccc(C(F)(F)F)cn5)cc4=O)cc31)CNCCC2` [Example 23, 1-(6-Methyl-1,2,3,4,5,6-hexahydroazepino[4,3-b]indol-8-yl)-4-(5-(trifluoromethyl)pyridin-2-yl)pyridin-2(1H)-one hydrochloride], the Ki (human MCH-1 receptor) is reported as 4.7 nM and the melting point is reported as 264 to 270 °C (dec.).

A Ki (human MCH-1 receptor) of 8.2 nM and a melting point of 191 to 200 °C were found for `Cl.Cn1c2c(c3ccc(-n4ccc(OCc5ccc(Cl)cc5F)cc4=O)cc31)CNCCC2` [Example 68, 4-(4-Chloro-2-fluorobenzyloxy)-1-(6-methyl-1,2,3,4,5,6-hexahydroazepino[4,3-b]indol-8-yl)pyridin-2(1H)-one hydrochloride] in this work.

A Ki (human MCH-1 receptor) of 7.5 nM and a melting point of 260 to 265 °C were found for `Cl.Cn1c2c(c3ccc(-n4ccc(OCc5ccc(F)cn5)cc4=O)cc31)CN(C1CCC1)CCC2` [Example 72, 1-(2-Cyclobutyl-6-methyl-1,2,3,4,5,6-hexahydroazepino[4,3-b]indol-8-yl)-4-((5-fluoropyridin-2-yl)methoxy)pyridin-2(1H)-one hydrochloride] in this work.

With `CSc1ccc(-c2ccn(-c3ccc4c5c(n(C)c4c3)CCCNC5)c(=O)c2)cc1.Cl` [Example 32, 1-(6-Methyl-1,2,3,4,5,6-hexahydroazepino[4,3-b]indol-8-yl)-4-(4-(methylthio)phenyl)pyridin-2(1H)-one hydrochloride] the Ki (human MCH-1 receptor) was 4.9 nM and the melting point was 250 to 255 °C (dec.).

A Ki (human MCH-1 receptor) of 60 nM and a melting point of 156 to 162 °C were found for `CC(=O)N1CCCc2c(c3ccc(-n4ccc(-c5ccc(C(F)(F)F)nc5)cc4=O)cc3n2C)C1` [Example 62, 1-(2-Acetyl-6-methyl-1,2,3,4,5,6-hexahydroazepino[4,3-b]indol-8-yl)-4-(6-(trifluoromethyl)pyridin-3-yl)pyridin-2(1H)-one] in this work.

A Ki (human MCH-1 receptor) of 9.8 nM and a melting point of 190 to 205 °C were found for `CCN1CCCc2c(c3ccc(N4CCN(CCc5ccc(F)cc5)CC4=O)cc3n2C)C1.Cl` [Example 76, 1-(2-Ethyl-6-methyl-1,2,3,4,5,6-hexahydroazepino[4,3-b]indol-8-yl)-4-(4-fluorophenethyl)piperazin-2-one hydrochloride] in this work.

A Ki (human MCH-1 receptor) of 6.4 nM and a melting point of 328 to 332 °C were found for `Cl.Cn1c2c(c3ccc(-n4ccc(OCc5ccccc5)cc4=O)nc31)CNCCC2` [Example 90, 4-(Benzyloxy)-1-(10-methyl-5,6,7,8,9,10-hexahydropyrido[3′,2′:4,5]pyrrolo[3,2-c]azepin-2-yl)pyridin-2(1H)-one hydrochloride] in this work.

A Ki (human MCH-1 receptor) of 9.6 nM and a melting point of 246 to 248 °C were found for `CCN1CCc2c(n(C)c3cc(-n4ccc(OCc5ccccc5)cc4=O)ccc23)CC1.Cl` [Example 14, 4-(Benzyloxy)-1-(3-ethyl-6-methyl-1,2,3,4,5,6-hexahydroazepino[4,5-b]indol-8-yl)pyridin-2(1H)-one hydrochloride] in this work.

For `Cl.Cn1c2c(c3ccc(-n4ccc(-c5ccc(C(F)(F)F)nn5)cc4=O)cc31)CNCCC2` [Example 28, 1-(6-Methyl-1,2,3,4,5,6-hexahydroazepino[4,3-b]indol-8-yl)-4-(6-(trifluoromethyl)pyridazin-3-yl)pyridin-2(1H)-one hydrochloride], the Ki (human MCH-1 receptor) was 10.9 nM and the melting point was 248 to 252 °C (dec.).

A Ki (human MCH-1 receptor) of 33 nM and a melting point of 238 to 240 °C were found for `Cl.Cn1c2c(c3ccc(-n4ccc(OCc5ccc(F)cn5)cc4=O)nc31)CCNCC2` [Example 81, 4-((5-Fluoropyridin-2-yl)methoxy)-1-(10-methyl-5,6,7,8,9,10-hexahydropyrido[3′,2′:4,5]pyrrolo[2,3-d]azepin-2-yl)pyridin-2(1H)-one hydrochloride] in this work.

A Ki (human MCH-1 receptor) of 22 nM and a melting point of 215 to 225 °C were found for `Cl.Cn1c2c(c3ccc(-n4ccc(OCc5ncc(F)cc5F)cc4=O)cc31)CCNCC2` [Example 102, 4-((3,5-Difluoropyridin-2-yl)methoxy)-1-(6-methyl-1,2,3,4,5,6-hexahydroazepino[4,5-b]indol-8-yl)pyridin-2(1H)-one hydrochloride] in this work.

A Ki (human MCH-1 receptor) of 74 nM and a melting point of 270 to 274 °C were found for `Cl.Cn1c2c(c3ccc(-n4ncc(OCc5ccc(C(F)(F)F)nc5)cc4=O)cc31)CCNCC2` [Example 47, 2-(6-Methyl-1,2,3,4,5,6-hexahydroazepino[4,5-b]indol-8-yl)-5-((6-(trifluoromethyl)pyridin-3-yl)methoxy)pyridazin-3(2H)-one hydrochloride] in this work.

For `Cl.Cn1c2c(c3ccc(-n4ccc(OCc5ccccc5)cc4=O)cc31)CNCCC2` [Example 21, 4-(Benzyloxy)-1-(6-methyl-1,2,3,4,5,6-hexahydroazepino[4,3-b]indol-8-yl)pyridin-2(1H)-one hydrochloride], the Ki (human MCH-1 receptor) was 4.7 nM and the melting point was 283 to 287 °C (dec.).

For `Cl.Cn1c2c(c3ccc(-n4ccc(-c5ccc(C(F)(F)F)cn5)cc4=O)nc31)CCNCC2` [Example 80, 1-(10-Methyl-5,6,7,8,9,10-hexahydropyrido[3′,2′:4,5]pyrrolo[2,3-d]azepin-2-yl)-4-(5-(trifluoromethyl)pyridin-2-yl)pyridin-2(1H)-one hydrochloride], the Ki (human MCH-1 receptor) was 69 nM and the melting point was 310 to 314 °C (dec.).

With `Cl.Cn1c2c(c3ccc(-n4ccc(OCc5ccccc5)cc4=O)cc31)CCCNC2` [Example 18, 4-(Benzyloxy)-1-(10-methyl-1,2,3,4,5,10-hexahydroazepino[3,4-b]indol-8-yl)pyridin-2(1H)-one hydrochloride] the Ki (human MCH-1 receptor) was 11.8 nM and the melting point was 210 to 218 °C (dec.).

A Ki (human MCH-1 receptor) of 6 nM and a melting point of 258 to 260 °C were found for `Cl.O=c1cc(OCc2ccccc2)ccn1-c1ccc2c3c([nH]c2c1)CCNCC3` [Example 7, 4-(Benzyloxy)-1-(1,2,3,4,5,6-hexahydroazepino[4,5-b]indol-8-yl)pyridin-2(1H)-one hydrochloride] in this work.

For `Cl.O=c1cc(-c2ccc(C(F)(F)F)cn2)ccn1-c1ccc2c3c([nH]c2c1)CCCNC3` [Example 36, 1-(1,2,3,4,5,6-Hexahydroazepino[4,3-b]indol-8-yl)-4-(5-(trifluoromethyl)pyridin-2-yl)pyridin-2(1H)-one hydrochloride], the Ki (human MCH-1 receptor) was 12.2 nM and the melting point was 310 to 320 °C (dec.).

A Ki (human MCH-1 receptor) of 22 nM and a melting point of 251 to 256 °C were found for `Cl.Cn1c2c(c3ccc(-n4ccc(OCc5ncc(Cl)cc5Cl)cc4=O)cc31)CNCCC2` [Example 67, 4-((3,5-Dichloropyridin-2-yl)methoxy)-1-(6-methyl-1,2,3,4,5,6-hexahydroazepino[4,3-b]indol-8-yl)pyridin-2(1H)-one dihydrochloride] in this work.

A Ki (human MCH-1 receptor) of 10.4 nM and a melting point of 256 to 258 °C were found for `CC(C)N1CCc2c(n(C)c3cc(-n4ccc(OCc5ccccc5)cc4=O)ccc23)CC1.Cl` [Example 15, 4-(Benzyloxy)-1-(3-isopropyl-6-methyl-1,2,3,4,5,6-hexahydroazepino[4,5-b]indol-8-yl)pyridin-2(1H)-one hydrochloride] in this work.
